In US9512107B2, “Therapeutically active compositions and their methods of use” (Agios Pharmaceuticals, Inc., priority 2012, dated 2016):
Numbering of substitutions follows the chain as printed.

Key:
IDH2 R140Q = molecular target: T1, IDH2 R140Q (Homo sapiens, UniProt P48735, R140Q); test: IDH2 R140Q enzymatic assay (cofactor depletion, similar format); format: biochemical; conditions: read-out: Enz R140Q
T1 sequence (P48735 40-452 R140Q): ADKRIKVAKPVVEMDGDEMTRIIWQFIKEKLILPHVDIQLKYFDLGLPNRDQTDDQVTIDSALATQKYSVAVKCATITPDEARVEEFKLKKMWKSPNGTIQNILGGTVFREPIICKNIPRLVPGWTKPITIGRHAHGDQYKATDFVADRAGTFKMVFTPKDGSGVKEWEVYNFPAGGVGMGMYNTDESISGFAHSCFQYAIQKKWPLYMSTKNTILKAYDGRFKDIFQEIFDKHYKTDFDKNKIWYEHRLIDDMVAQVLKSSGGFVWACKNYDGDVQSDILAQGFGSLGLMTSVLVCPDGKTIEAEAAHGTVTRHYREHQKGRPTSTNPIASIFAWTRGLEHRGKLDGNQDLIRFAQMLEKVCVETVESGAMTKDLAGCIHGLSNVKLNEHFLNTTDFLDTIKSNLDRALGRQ

IDH2 R172K = molecular target: T2, IDH2 R172K (Homo sapiens, UniProt P48735, R172K); test: IDH2 R172K enzymatic assay (NADPH cofactor depletion, diaphorase/resazurin readout); format: biochemical; conditions: read-out: Enz R172K
T2 sequence (P48735 40-452 R172K): T1 sequence (P48735 40-452 R140Q) with Q101R, R133K
Summary of the method: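 Compound was preincubated with IDH2 R172K for 1 h at room temperature, then the reaction was started with substrate mix containing 50 μM NADPH and 6.3 mM α-KG. After another 1 h at room temperature, stop mix with diaphorase and resazurin consumed the remaining NADPH, and resorufin fluorescence was read.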

[1] = test system: U87MG pLVX-IDH2 R140Q-neo cells; test: U87MG pLVX-IDH2 R140Q-neo cell based assay, 2-HG in media by LC-MS at 48 hours; conditions: Homo sapiens, U-87 MG
Summary of the method: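 U87MG cells stably expressing IDH2 R140Q were seeded overnight, then exposed to compound at 0.2% final DMSO at 37 °C, 5% CO2. 2-HG in the medium was quantified by LC-MS at 48 h. Growth inhibition was read by CellTiter-Glo luminescence at 72 h.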

| IC50 (IDH2 R140Q) [nM] | IC50 (IDH2 R172K) [nM] | IC50 [1] [nM] | Structure (SMILES) |
| --- | --- | --- | --- |
| 100 to 1000 | > 10000 | < 100 | CC(C)Nc1nc(Nc2ccnc(C(F)(F)F)c2)nc(-c2cccc(CN)c2)n1 [Compound 654, 6-(3-(aminomethyl)phenyl)-N2-isopropyl-N4-(2-(trifluoromethyl)pyridin-4-yl)-1,3,5-triazine-2,4-diamine] |
| 100 to 1000 | < 100 | < 100 | CC(C)(C)Nc1nc(Nc2cc(F)cc(F)c2)nc(-c2cccc(C(F)(F)F)n2)n1 [Compound 601, N2-(tert-butyl)-N4-(3,5-difluorophenyl)-6-(6-(trifluoromethyl)pyridin-2-yl)-1,3,5-triazine-2,4-diamine] |
| < 100 | 100 to 1000 | < 100 | FC(F)(F)CNc1nc(Nc2ccccc2)nc(-c2ccccc2)n1 [Compound 126] |
| < 100 | 100 to 1000 | < 100 | CC(Nc1nc(Nc2ccncc2)nc(-c2ccccc2)n1)C(C)(C)C (stereo not drawn) [Compound 255, N^2-(3,3-dimethylbutan-2-yl)-6-phenyl-N^4-(pyridin-4-yl)-1,3,5-triazine-2,4-diamine] |
| 100 to 1000 | 100 to 1000 | < 100 | OC1CC1Nc1nc(Nc2ccnc(C(F)(F)F)c2)nc(-c2cccc(C(F)(F)F)n2)n1 (stereo not drawn) [Compound 568, 2-[4-(6-Trifluoromethyl-pyridin-2-yl)-6-(2-trifluoromethyl-pyridin-4-ylamino)-[1,3,5]triazin-2-ylamino]-cyclopropanol] |
| < 100 | 100 to 1000 | < 100 | c1ccc(-c2nc(Nc3ccncc3)nc(NC3CCC3)n2)cc1 [Compound 188, N^2-cyclobutyl-6-phenyl-N^4-(pyridin-4-yl)-1,3,5-triazine-2,4-diamine] |
| 100 to 1000 | 100 to 1000 | < 100 | CC(C)Nc1nc(Nc2ccnc(C(F)(F)F)c2)nc(-c2nccc(C(F)(F)F)n2)n1 [Compound 522, N2-isopropyl-N4-(2-(trifluoromethyl)pyridin-4-yl)-6-(4-(trifluoromethyl)pyrimidin-2-yl)-1,3,5-triazine-2,4-diamine] |
| 100 to 1000 | 1000 to 10000 | 100 to 1000 | OCCNc1nc(Nc2ccccc2)nc(-c2ccccc2)n1 [Compound 238, 2-(4-phenyl-6-(phenylamino)-1,3,5-triazin-2-ylamino)ethanol] |
| < 100 | 100 to 1000 | < 100 | CC(C)Nc1nc(Nc2ccnc(C#N)c2)nc(-c2ccccc2)n1 [Compound 197, 4-(4-(isopropylamino)-6-phenyl-1,3,5-triazin-2-ylamino)picolinonitrile] |
| < 100 | 1000 to 10000 | 100 to 1000 | CC(C)(C)Nc1nc(Nc2ccncc2)nc(-c2ccccc2)n1 [Compound 189, N^2-tert-butyl-6-phenyl-N^4-(pyridin-4-yl)-1,3,5-triazine-2,4-diamine] |
| 100 to 1000 | < 100 | < 100 | Nc1cccc(-c2nc(NCC(F)(F)F)nc(Nc3cc(F)cc(F)c3)n2)n1 [Compound 491, 6-(6-aminopyridin-2-yl)-N2-(3,5-difluorophenyl)-N4-(2,2,2-trifluoroethyl)-1,3,5-triazine-2,4-diamine] |
| 100 to 1000 | 1000 to 10000 | 100 to 1000 | CC(C)Nc1nc(Nc2ccccc2)nc(-c2ccncc2)n1 [Compound 156] |
| 100 to 1000 | 1000 to 10000 | 100 to 1000 | c1ccc(Nc2nc(NCC3CCO3)nc(-c3ccccc3)n2)cc1 (stereo not drawn) [Compound 237, N^2-(oxetan-2-ylmethyl)-N^4,6-diphenyl-1,3,5-triazine-2,4-diamine] |
| 100 to 1000 | 100 to 1000 | < 100 | CC(C)CNc1nc(Nc2cccc(S(C)(=O)=O)c2)nc(-c2cccc(C(F)(F)F)n2)n1 [Compound 571, N2-isobutyl-N4-(3-(methylsulfonyl)phenyl)-6-(6-(trifluoromethyl)pyridin-2-yl)-1,3,5-triazine-2,4-diamine] |

The remaining lines, values behind:

| Structure (SMILES) | IC50 (IDH2 R140Q) [nM] | IC50 (IDH2 R172K) [nM] | IC50 [1] [nM] |
| --- | --- | --- | --- |
| CC(C)(CO)CNc1nc(Nc2ccnc(C(F)(F)F)c2)nc(-c2cccc(C(F)(F)F)n2)n1 [Compound 530, 2,2-Dimethyl-3-[4-(6-trifluoromethyl-pyridin-2-yl)-6-(2-trifluoromethyl-pyridin-4-ylamino)-[1,3,5]triazin-2-ylamino]-propan-1-ol] | 100 to 1000 | 100 to 1000 | < 100 |
| FC1(F)CC(Nc2nc(Nc3ccncc3)nc(-c3ccccc3)n2)C1 [Compound 253, N^2-(3,3-difluorocyclobutyl)-6-phenyl-N^4-(pyridin-4-yl)-1,3,5-triazine-2,4-diamine] | < 100 | 100 to 1000 | < 100 |
| CC(C)Nc1nc(Nc2ccnc(C(F)(F)F)c2)nc(-c2cccc(O)c2)n1 [Compound 640, 3-[4-Isopropylamino-6-(2-trifluoromethyl-pyridin-4-ylamino)-[1,3,5]triazin-2-yl]-phenol] | < 100 | < 100 | < 100 |
| Fc1cc(F)cc(Nc2nc(NCC3CC3)nc(-c3cccc(C(F)(F)F)n3)n2)c1 [Compound 598, N2-(cyclopropylmethyl)-N4-(3,5-difluorophenyl)-6-(6-(trifluoromethyl)pyridin-2-yl)-1,3,5-triazine-2,4-diamine] | 100 to 1000 | < 100 | < 100 |
| CC(C)Nc1nc(Nc2cccnc2)nc(-c2ccccc2)n1 [Compound 154] | < 100 | 1000 to 10000 | 100 to 1000 |
| CC(C)(C)CNc1nc(Nc2ccnc(C(F)(F)F)c2)nc(-c2ccccn2)n1 [Compound 517, N-(2,2-Dimethyl-propyl)-6-pyridin-2-yl-N′-(2-trifluoromethyl-pyridin-4-yl)-[1,3,5]triazine-2,4-diamine] | 100 to 1000 | < 100 | < 100 |
| CC(C)(O)CNc1nc(Nc2ccnc(C(C)(F)F)c2)nc(-c2cccc(C(C)(F)F)n2)n1 [Compound 605, 1-((4-(6-(1,1-difluoroethyl)pyridin-2-yl)-6-((2-(1,1-difluoroethyl)pyridin-4-yl)amino)-1,3,5-triazin-2-yl)amino)-2-methylpropan-2-ol] | 100 to 1000 | 100 to 1000 | < 100 |
| CC(C)Nc1nc(Nc2cc(F)cc(F)c2)nc(-c2cccc(C(F)(F)F)n2)n1 [Compound 603, N2-(3,5-difluorophenyl)-N4-isopropyl-6-(6-(trifluoromethyl)pyridin-2-yl)-1,3,5-triazine-2,4-diamine] | 100 to 1000 | < 100 | < 100 |
| Cc1cc(Nc2nc(NC(=O)C(C)(C)C)nc(-c3ccccc3)n2)ccn1 [Compound 350] | 100 to 1000 | 1000 to 10000 | 100 to 1000 |
| CC(C)Nc1nc(Nc2ccnc(C(C)(C)O)c2)nc(-c2cccc(C(F)(F)F)n2)n1 [Compound 496, 2-{4-[4-Isopropylamino-6-(6-trifluoromethyl-pyridin-2-yl)-[1,3,5]triazin-2-ylamino]-pyridin-2-yl}-propan-2-ol] | 100 to 1000 | < 100 | < 100 |
| CC(C)Nc1nc(Nc2cncc(C#N)c2)nc(-c2ccccc2)n1 [Compound 210, 5-(4-(isopropylamino)-6-phenyl-1,3,5-triazin-2-ylamino)nicotinonitrile] | < 100 | 100 to 1000 | < 100 |
| CC(C)Nc1nc(Nc2ccnc(C(F)(F)F)c2)nc(-c2cccc(C(O)C(F)(F)F)c2)n1 (stereo not drawn) [Compound 652, 2,2,2-trifluoro-1-(3-(4-(isopropylamino)-6-((2-(trifluoromethyl)pyridin-4-yl)amino)-1,3,5-triazin-2-yl)phenyl)ethanol] | 100 to 1000 | 100 to 1000 | 100 to 1000 |
| Fc1cncc(Nc2nc(NC3COC3)nc(-c3ccccc3F)n2)c1 [Compound 625, 6-(2-Fluoro-phenyl)-N-(5-fluoro-pyridin-3-yl)-N′-oxetan-3-yl-[1,3,5]triazine-2,4-diamine] | < 100 | 100 to 1000 | < 100 |
| CC(C)(C)CNc1nc(Nc2ccnc(C(F)(F)F)c2)nc(-c2nccc(C(F)(F)F)n2)n1 [Compound 523, N2-neopentyl-N4-(2-(trifluoromethyl)pyridin-4-yl)-6-(4-(trifluoromethyl)pyrimidin-2-yl)-1,3,5-triazine-2,4-diamine] | 100 to 1000 | < 100 | < 100 |
